{
  "source": "patent US20230330104A1",
  "about": "“PRESERVATIVE-FREE OPHTHALMIC PHARMACEUTICAL EMULSION AND ITS APPLICATION” (Caravel Therapeutics, Inc., priority 2022, published 2023)",
  "key": {"[1]": {"test": "Stability study (ICH Q1A(R2)) of the emulsion", "assay_type": "physicochemical", "conditions": "accelerated condition", "procedure": "In this section, stability study is conducted using the abovementioned Example 1 as an example. The stability study is performed according to common practices known such as ICH HARMONISED TRIPARTITE GUIDELINE-Topic Q1A(R2) <Stability Testing of new Drug Substances and Products> and inspection items are screened based on USP chapter 771 and 1771. The stability study is carried out under two conditions: temperature of 5° C.±3° C. with no humidity; and temperature of 25° C.±2° C. with the relative humidity of 60%±5%. LBN content is determined with an HPLC equipped with an UV detector and using a mixture of two mobile phases. The HPLC condition reports as the following: [table]"}, "[2]": {"tested_on": "optic nerve head area", "test": "Laser speckle flowgraph (LSFG) evaluation, mean blur rate and pulse waveform", "assay_type": "in vivo, human", "conditions": "for MS (mean skew): baseline 11.92 ± 3.94; for MS (mean skew) / MBRt (mean blur rate of tissue area) / MF (mean fluctuation) / MATI (mean acceleration time index) / MBRv (mean blur rate of vessel area) / MBOT (mean blowout time) / MBOS (mean blowout score): mean ± SD; for MBRt (mean blur rate of tissue area): baseline 12.65 ± 3.57; for MF (mean fluctuation): baseline 13.76 ± 3.79; for MATI (mean acceleration time index): baseline 32.62 ± 5.80; for MBRv (mean blur rate of vessel area): baseline 40.24 ± 10.65; for MBOT (mean blowout time): baseline 50.53 ± 8.53; for MBOS (mean blowout score): baseline 75.27 ± 6.51; for MBRt (%), percentage of baseline / MBRv (%), percentage of baseline: baseline 100.0 ± 0", "description": "(§1) The patients diagnosed with open angle glaucoma in total are 35 eyes of 20 patients, wherein 10 eyes are diagnosed as POAG, and 25 eyes are NTG, besides 2 eyes had received prior corneal refractive surgery, and 1 eye had undergone cataract extraction and intraocular lens implantation. In the aspect of the medication using, 20 eyes are treatment naïve upon entry of the study (that is they are not using IOP lowering medication), and 15 eyes are previously treated with IOP lowering medication. The IOP lowering medication in the treated patients were requested for the following medication washout period: 4 weeks for beta-blockers and prostaglandin analogues, 2-4 weeks for alpha-agonists, and 1 week for carbonic anhydrase inhibitors in order to eliminate the experimental errors.\n(§2) All patients are received the best corrected visual acuity test (BCVA), IOP measurement, optical coherence tomography (OCT), laser speckle flowgraph (LSFG) evaluation, fundus photo, visual field examination, blood pressure (BP), and heart rate measurement, and then these obtained data are averaged as the baseline data of the experiment, but the intraocular eye disease other than OAG, significant cataract influencing refractive errors or visual field result, systemic disease with resultant visual field defect, and unreliable LSFG results are excluded.\nIn the LSFG evaluation, one drop of said emulsion is instilled in the examined eyes at clinic. Afterward, LSFG measurements are repeated at 30 minutes and 2 hours post-LBN instillation. The patients would continuously instill the emulsion once every night for one month, and return to clinic again for another LSFG exam. Laser speckle flowgraph (LSFG-NAVI version 3.1.39.2 software, Softcare Ltd., Fukuoka, Japan) are used to measure the mean blur rate (MBR) of the optic nerve head area for pulse waveform analysis in all patients. Averaged MBR and pulse waveform parameters are documented at each LSFG measurement in order to evaluate the effect of latanoprostene bunod using on microcirculation of optic nerve head."}, "[3]": {"tested_on": "patients diagnosed with open angle glaucoma", "test": "Blood pressure, ocular perfusion pressure and heart rate measurement", "assay_type": "in vivo, human", "conditions": "for MOPP (mean ocular perfusion pressure): baseline 48.82 ± 7.10; for MOPP (mean ocular perfusion pressure) / MHR (mean heart rate) / MBP (mean blood pressure): mean ± SD; for MHR (mean heart rate): baseline 74.03 ± 8.95; for MBP (mean blood pressure): baseline 99.69 ± 9.90", "description": "as §1, §2"}, "[4]": {"tested_on": "patients diagnosed with open angle glaucoma", "test": "IOP measurement after emulsion instillation", "assay_type": "in vivo, human", "conditions": "baseline 17.68 ± 4.11, mean ± SD", "description": "as §1\nas §2, with “excluded. […]” for “excluded.”"}, "[5]": {"conditions": "all time points, Wilcoxon signed rank test"}},
  "note": "Values joined by “and” are separate entries in the source; they are usually repeats but may differ in a detail not shown here. Identical values can stand only once. “Also recorded” adds a separate entry of the source.",
  "data": [
    {"smiles": "O=C(CCC/C=C\\C[C@@H]1[C@@H](CC[C@@H](O)CCc2ccccc2)[C@H](O)C[C@@H]1O)OCCCCO[N+](=O)[O-]", "note": "[LBN, Latanoprostene bunod]", "values": [
      {"measurement": "assay of LBN upon storage", "setting": "[1]", "value": "remained unchanged"},
      {"measurement": "MS (mean skew)", "setting": "[2]; 1 month", "value": "10.99 ± 2.30", "unit": "AU"},
      {"measurement": "MBRt (mean blur rate of tissue area)", "setting": "[2]; 1 month", "value": "12.67 ± 3.80", "unit": "AU"},
      {"measurement": "MF (mean fluctuation)", "setting": "[2]; 1 month", "value": "13.44 ± 3.31", "unit": "AU"},
      {"measurement": "MATI (mean acceleration time index)", "setting": "[2]; 1 month", "value": "31.71 ± 4.11", "unit": "%"},
      {"measurement": "MBRv (mean blur rate of vessel area)", "setting": "[2]; 1 month", "value": "45.49 ± 12.22", "unit": "AU"},
      {"measurement": "MBOT (mean blowout time)", "setting": "[2]; 1 month", "value": "52.67 ± 6.62", "unit": "AU"},
      {"measurement": "MBOS (mean blowout score)", "setting": "[2]; 1 month", "value": "77.26 ± 6.26", "unit": "AU"},
      {"measurement": "MBRt (%), percentage of baseline", "setting": "[2]; 1 month", "value": "101.84 ± 15.33", "unit": "%"},
      {"measurement": "MBRv (%), percentage of baseline", "setting": "[2]; 1 month", "value": "113.91 ± 26.53", "unit": "%"},
      {"measurement": "MS (mean skew)", "setting": "[2]; 30 minutes", "value": "11.84 ± 2.08", "unit": "AU"},
      {"measurement": "MBRt (mean blur rate of tissue area)", "setting": "[2]; 30 minutes", "value": "12.48 ± 3.04", "unit": "AU"},
      {"measurement": "MF (mean fluctuation)", "setting": "[2]; 30 minutes", "value": "13.94 ± 4.30", "unit": "AU"},
      {"measurement": "MATI (mean acceleration time index)", "setting": "[2]; 30 minutes", "value": "31.51 ± 4.04", "unit": "%"},
      {"measurement": "MBRv (mean blur rate of vessel area)", "setting": "[2]; 30 minutes", "value": "41.95 ± 10.03", "unit": "AU"},
      {"measurement": "MBOT (mean blowout time)", "setting": "[2]; 30 minutes", "value": "49.76 ± 6.17", "unit": "AU"},
      {"measurement": "MBOS (mean blowout score)", "setting": "[2]; 30 minutes", "value": "74.44 ± 7.60", "unit": "AU"},
      {"measurement": "MBRt (%), percentage of baseline", "setting": "[2]; 30 minutes", "value": "100.63 ± 14.37", "unit": "%"},
      {"measurement": "MBRv (%), percentage of baseline", "setting": "[2]; 30 minutes", "value": "105.97 ± 16.49", "unit": "%"},
      {"measurement": "MS (mean skew)", "setting": "[2]; 2 hours", "value": "11.82 ± 2.58", "unit": "AU"},
      {"measurement": "MBRt (mean blur rate of tissue area)", "setting": "[2]; 2 hours", "value": "12.73 ± 3.46", "unit": "AU"},
      {"measurement": "MF (mean fluctuation)", "setting": "[2]; 2 hours", "value": "13.46 ± 3.95", "unit": "AU"},
      {"measurement": "MBRv (mean blur rate of vessel area)", "setting": "[2]; 2 hours", "value": "45.14 ± 10.59", "unit": "AU"},
      {"measurement": "MBOT (mean blowout time)", "setting": "[2]; 2 hours", "value": "52.09 ± 5.56", "unit": "AU"},
      {"measurement": "MBOS (mean blowout score)", "setting": "[2]; 2 hours", "value": "76.24 ± 6.67", "unit": "AU"},
      {"measurement": "MBRt (%), percentage of baseline", "setting": "[2]; 2 hours", "value": "101.84 ± 13.71", "unit": "%"},
      {"measurement": "MBRv (%), percentage of baseline", "setting": "[2]; 2 hours", "value": "114.36 ± 20.02% and 114.36 ± 20.2 %"},
      {"measurement": "mean blur rate of tissue area (MBRt), difference from baseline", "setting": "[2]; [5]", "value": "not significantly different"},
      {"measurement": "MOPP (mean ocular perfusion pressure)", "setting": "[3]; 1 month", "value": "50.80 ± 12.06", "unit": "mmHg"},
      {"measurement": "MHR (mean heart rate)", "setting": "[3]; 1 month", "value": "72.03 ± 10.68", "unit": "min⁻¹"},
      {"measurement": "MBP (mean blood pressure)", "setting": "[3]; 1 month", "value": "98.08 ± 12.06", "unit": "mmHg"},
      {"measurement": "MOPP (mean ocular perfusion pressure)", "setting": "[3]; 30 minutes", "value": "47.87 ± 8.07", "unit": "mmHg"},
      {"measurement": "MBP (mean blood pressure)", "setting": "[3]; 30 minutes", "value": "99.62 ± 11.54", "unit": "mmHg"},
      {"measurement": "MOPP (mean ocular perfusion pressure)", "setting": "[3]; 2 hours", "value": "48.65 ± 9.48", "unit": "mmHg"},
      {"measurement": "MHR (mean heart rate)", "setting": "[3]; 2 hours", "value": "77.77 ± 11.11", "unit": "min⁻¹"},
      {"measurement": "MBP (mean blood pressure)", "setting": "[3]; 2 hours", "value": "98.88 ± 14.12", "unit": "mmHg"},
      {"measurement": "mean blood pressure (MBP), difference from baseline", "setting": "[3]; [5]", "value": "not significantly different"},
      {"measurement": "mean ocular perfusion pressure (MOPP), difference from baseline", "setting": "[3]; [5]", "value": "not significantly different; also recorded: has not differed"},
      {"measurement": "MIOP (mean intraocular pressure)", "setting": "[4]; 30 minutes after instillation", "value": "18.29 ± 4.00", "unit": "mmHg"},
      {"measurement": "MIOP (mean intraocular pressure)", "setting": "[4]; 2 hours after instillation", "value": "17.24 ± 4.14", "unit": "mmHg"}
    ]}
  ]
}
